{"source": "patent US20040192641A1", "about": "“Special preparation of anticancer drugs made by novel nanotechnology” (priority 2003, published 2004)", "key": {"[1]": {"tested_on": "stem cells of bone marrow", "assay": "Hemopoietic system: CFU-S in mice treated with cyclophosphamide", "assay_type": "in vivo", "conditions": "mice treated with CY with or without PK", "description": "Effects of PK on hemopoietic system were investigated."}, "peritoneal macrophage": {"tested_on": "peritoneal macrophage", "assay": "Phagocytosis of peritoneal macrophage (chick red blood cells)", "assay_type": "in vivo, mice", "conditions": "macrophages with phagocytized chick red blood cells per 100; PK 25 mg/kg i.p. daily 5 days, CY 4.5 mg/kg", "protocol": "(§1) Male mice weight 18-20 g were used in the experiments and were divided into treated (PK) and control groups. The dosage of PK was 25 mg/kg injected intraperitoneally. The control mice were injected with same volume of normal saline. These injections were repeated daily for 5 days, both treated and control group were injected intraperitoneally with CY. The dosage of CY is 4.5 mg/kg.\nAdded 0.02 ml of 5% washed chick red blood cell suspension to 0.5 ml of the peritoneal exudates. Shook gently to mix and incubate at 37° C. for 5 minutes. Dipped two cover slips, closed to each other, in the above mixture and incubated for 30 minutes for the migration of the macrophages along the cover slips, fixed and stained with Sharma stain. Examined microscopically for:\nPhagocytic rate—number of macrophages with phagocytized chick red blood cells per 100 macrophages counted. Concentration of PK and CY is the same as Example 2. Pharmacological effects are as illustrated by the following table."}, "white blood cells": {"tested_on": "white blood cells", "assay": "White blood cells assay", "assay_type": "in vivo, mice", "conditions": "time of treatment 10 days", "protocol": "as §1\nAction of PK and CY on white blood cells was investigated by means of white blood cells assay. PK protected white blood cells and phagocytosis from the killing effect of CY. The dosage of PK and CY is the same as in Example 4. Time of treatment is 10 days."}, "lymphocytes": {"tested_on": "lymphocytes", "assay": "Lymphoblastic transformation, 3H-TdR liquid scintillation assay", "assay_type": "in vivo, mice", "conditions": "3H-TdR incorporation; PK and CY as in Example 4", "protocol": "By means of ^3H-TdR liquid scintillation assay technique, the action of PK on lymphoblastic transformation was investigated method:\n(1) Experimental procedure of animal is the same as in Example 4.\n(2) Lemphoblastic transformation test:\nI. Reagents and Conditions for Cell Culture\na. Culture media—RPMI 1640, medium 199 minimal essential medium (Eagle).\nb. Buffer—Hepes buffer, the final concentration at 37° C. was 25 mM, to maintain the pH of the medium at 7.31.\nc. Serum—generally 15-205 fetal bovine serum was incorporated, for lymphocytes from mice, 5% was used.\nd. Gaseous phase—5% CO2 in air.\ne. Cell concentration—generally 1-2 c 10^6/ml.\nf. Stimulants—20 μl/ml for phytohemagglutinin containing polysaccharide (PHA-M) or 10 μl/ml for polysaccharide-free purified phytohemagglutinin (PHA-P).\nII. Measured by Liquid Scintillation\na. The conditions of cell culture are same as above. ^3H-TdR was added after 48 hours of incubation at a final concentration of 1 μCi/ml and continued the incubation for 24 hours.\nb. Washed the cells twice with cold normal saline and the erythrocytes were lysed. The intact lymphocytes were again washed once with cold saline. Spun down the lymphocytes and added 2 ml of 10% trichloroacetic acid to precipitate the protein. Washed twice with normal saline. […]\nc. Added 4 ml of scintillation fluid to 0.1 ml of the final sample and counted in a liquid scintillation counter. […]"}, "Interleukin-2 (rIL-2)": {"tested_on": "Interleukin-2 (rIL-2)", "assay": "Effect on Interleukin-2", "assay_type": "in vivo, mice", "conditions": "PK and CY as in Example 4", "description": "The method of determination rIL-2 was as same as Example 4."}, "[2]": {"assay": "Radiolabelled nanoparticle experiment: circulation of 3H-HHT in blood", "assay_type": "in vivo, mice", "protocol": "Mice were used in this experiment. […]\nAfter injection of radioactive ^3H-HHT or PK-^3H-HHT-NP, blood-associated radioactivity was determined.\n1 ml of sample of blood was ultracentrifuged at 100,000×g for 1 hour. After discarding the supernatant, the sediment was dispersed again by mechanical stirring in 1.5 ml of distilled water. 100 μl of the sediment or supernatant were then added to 10 ml of scintillation liquid solution. After weighing, the radioactivity of the tissue samples was measured by a scintillation counter."}}}
{"smiles": "O=P1(N(CCCl)CCCl)NCCCO1", "note": "(centres unmarked) [CY, cyclophosphamide]", "values": [{"measurement": "Mean (CFU-S ± SD)", "setting": "[1]", "result": "7.6 ± 1.1"}, {"measurement": "Phagocytic (rate ± SD)", "setting": "peritoneal macrophage", "result": "8.5 ± 0.90"}, {"measurement": "Phagocytic (rate ± SD)", "setting": "white blood cells", "result": "6.0 ± 0.70"}, {"measurement": "CPM ± SD", "setting": "lymphocytes", "result": "600 ± 65", "unit": "CPM"}, {"measurement": "IL-2 (U/ml)", "setting": "Interleukin-2 (rIL-2)", "result": "47.5 ± 5.5", "unit": "U/ml"}]}
{"smiles": "COC(=O)C[C@](O)(CCCC(C)(C)O)C(=O)O[C@@H]1C(OC)=C[C@]23CCCN2CCc2cc4c(cc2[C@H]13)OCO4", "note": "[^3H-HHT (free)]", "values": [{"measurement": "Circulation 3H-HHT in blood", "setting": "[2]; 1 hour after administration", "result": 2400, "unit": "cpm"}, {"measurement": "Circulation 3H-HHT in blood", "setting": "[2]; 8 hours after administration", "result": 90, "unit": "cpm"}, {"measurement": "Circulation 3H-HHT in blood", "setting": "[2]; 24 hours after administration", "result": 60, "unit": "cpm"}]}
